Data set [1] relates to wild type murine macrophages. As to the kind of experiment: Wild type murine macrophages in the presence of IFN-γ, IL-12 p40 ELISA. Format: cell-based, mouse. The note with it: FIG. 6 Panel A, 12 hours, RNA with DOTAP. How it is done:
The following murine cells were isolated and incubated with various RNAs and other known TLR ligands in order to assess species-, cell type-, and signaling pathway-specificity: wild type macrophages in the presence of IFN-γ; MyD88-deficient macrophages in the presence of IFN-γ; J774 (mouse macrophage cell line); and RAW 264.7 (mouse macrophage cell line, e.g., ATCC TIB-71). Murine bone macrophages were generated from wild type or MyD88-deficient C57BL/6 mice by culturing bone marrow cells with 50 ng/ml M-CSF for 5 days. Cells were seeded at 25,000 cells/well and treated with 20 ng/ml IFN-γ for 16 hours. The murine macrophage cell lines RAW and J774 were seeded at 10,000 cells/well.
The following test and control agents were examined: R-848 (2 μg/ml), ODN 1668 (CpG DNA; 5′-[…]-3′; SEQ ID NO:7); LPS (1 μg/ml); poly IC (50 μg/ml); Pam3Cys (5 μg/ml); Ionomycin/TPA; the following RNA molecules, each with (“+Lipo”) and without DOTAP (10 μg/200 μl culture well): GUGUUUAC alone (RNA1); GUAGGCAC alone (RNA2); GUGUUUAC in combination with GUAGGCAC (RNA1/2); […] (RNA6; SEQ ID NO:8); […] (RNA9; SEQ ID NO:9); and the following DNA molecules, corresponding to RNA1, RNA2, and RNA1/2: GTGTTTAC alone (DNA1); GTAGGCAC alone (DNA2); and GTGTTTAC in combination with GTAGGCAC (DNA1/2). These RNA and DNA oligonucleotides each contained a phosphorothioate linkage between the penultimate and 3′ terminal nucleoside. RNA6 and RNA9 each contained in addition a phosphorothioate linkage between the penultimate and 5′ terminal nucleoside. RNA6 corresponds to a ribosomal RNA stem loop derived from Listeria monocytogenes. RNA9 corresponds to a stem loop derived from human immunodeficiency virus (HIV, an RNA retrovirus). The cells were cultured for 12 hours and supernatants were harvested. Murine IL-12 p40, IL-6, and TNF-α were measured by ELISA using matched antibody pairs from BD-Pharmingen according to the manufacturer's protocol.
A general note: ELISA stands for enzyme-linked immunosorbent assay.

For another data set, the system named is human PBMC. The data set is described as follows: Human PBMC IL-12 p40 secretion, ELISA. Format: cell-based. The following applies: for IL-12 p40 response of human PBMC (in words): Example 1, FIG. 1, 16 hours, RNA 50 μg/ml with and without DOTAP, R-848 2 μg/ml, LPS 1 μg/ml, Pam3Cys 5 μg/ml, poly IC 50 μg/ml; for effect of DOTAP on the amount of IL-12 p40 secreted: Example 4, FIG. 5, presence versus absence of DOTAP, 16 hour incubation. How it is done: Human peripheral blood mononuclear cells (PBMCs) were isolated from healthy donors, plated at 3×10^5 cells/well, stimulated in vitro with various test and control immunostimulatory agents for 16 hours, and then analyzed by enzyme-linked immunosorbent assay (ELISA) using matched antibody pairs from BD-Pharmingen for secreted cytokines IL-12 p40 and TNF-α, performed according to the manufacturer's protocol. Also included were certain negative controls, including medium alone and DOTAP (10 μg/200 μl culture well; “Liposomes”) alone. The control immunostimulatory agents included the imidazoquinolone R-848 (2 μg/ml), lipopolysaccharide (LPS; 1 μg/ml), Pam3Cys (5 μg/ml), poly IC (50 μg/ml), and CpG DNA (50 μg/ml). These are reported ligands for TLR7, TLR4, TLR2, TLR3, and TLR9, respectively. Test immunostimulatory agents included the following RNA molecules, each at 50 μg/ml, with and without DOTAP (10 μg total “with Liposomes” and “without Liposomes”, respectively): GUGUUUAC alone; GUAGGCAC alone; GUGUUUAC in combination with GUAGGCAC; GUAGGA; GAAGGCAC; CUAGGCAC; CUCGGCAC; and CCCCCCCC. These RNA oligonucleotides each contained a phosphorothioate linkage between the penultimate and 3′ terminal nucleoside.
The experiments described in the preceding example were repeated with varied concentrations of RNA oligonucleotides in order to assess the dose-response behavior of human PBMCs to G,U-containing RNA oligonucleotides of the invention. A total of 10, 3 or 1 μg RNA was added to 10 μg DOTAP and then added to the 200 μl culture wells. After 16 hours IL-12 p40 and TNF-α ELISAs were performed as described in Example 1. […]
RNA oligomers GUGUGUGU, GUGUGUG, GUGUGU, GUGUG, GUGU, GUG, and GU, with and without DOTAP, were added over a range of concentrations to overnight cultures of human PBMC. Culture supernatants were harvested, and human TNF-α, IL-12 p40, and IFN-α were measured by ELISA using matched antibody pairs from BD-Pharmingen according to the manufacturer's protocol. […]

For the molecule “5′-TCCATGACGTTCCTGATGCT-3′ (CpG DNA, linkage chemistry not given here, further chemistry not given here) [ODN 1668]”, the “IL-12 p40 secretion by wild type murine macrophages” value (shortened to “IL-12 p40 secretion”) in data set [1] was “significant amounts”.

As for `CCCCCCCCCCCCCCCC(=O)N[C@@H](CSC[C@@H](COC(=O)CCCCCCCCCCCCCCC)OC(=O)CCCCCCCCCCCCCCC)C(=O)O` [Pam3Cys, reference compound], in the data set with human PBMC, the “IL-12 p40 response of human PBMC (in words)” value (“IL-12 p40 response” below) is reported as “responsive” and the “effect of DOTAP on the amount of IL-12 p40 secreted” value (“effect of DOTAP” below) is given as “about the same immunostimultory effect”. Moreover, the “IL-12 p40 secretion” value in data set [1] was “significant amounts”.

Regarding “lipopolysaccharide [LPS, reference compound]”, in the data set with human PBMC, the “IL-12 p40 response” value was “responsive” and the “effect of DOTAP” value was “reduced immunostimultory effect”. Also, in data set [1], the “IL-12 p40 secretion” value is reported as “significant amounts”.

Turning to poly IC [reference compound], in the data set with human PBMC, the “IL-12 p40 response” value was “responsive” and the “effect of DOTAP” value is recorded as “reduced immunostimultory effect”. Also, the “IL-12 p40 secretion” value in data set [1] is “significant amounts”.

These data come from patent publication US9428536B2, “Immunostimulatory G, U-containing oligoribonucleotides” (Zoetis Belgium SA, priority 2002, dated 2016).
